In patent US10183949B2, “Pyrimidinone derivative having autotaxin-inhibitory activity” (The University of Tokyo, priority 2014, dated 2019):

Biological target: T1, Human autotaxin enzyme (Homo sapiens, UniProt Q13822)
T1 construct: purchased R&D System
Experiment: Evaluation of autotaxin inhibitor, 18:0 Lyso PC / choline assay (Test Example 2)
Assay type: biochemical
Conditions: human autotaxin enzyme, 18:0 Lyso PC substrate, choline assay, room temperature 2 hours; read-out: Inhibitor activity (IC50)
Description: Solution B containing 100 mM Tris-HCl buffer (pH7.5), 150 mM NaCl, 5 mM MgCl2, and 0.05% Triton X-100 was prepared. Human autotaxin enzyme (purchased from R&D System) was diluted with Solution B, and 2.5 μl of which was added to a solution of test compound in DMSO. Furthermore, 2.5 μl of 200 μM 18:0 Lyso PC (purchased from Avanti Polar Lipids) in Solution B was added and allowed to react at room temperature for 2 hours. After completion of the reaction, 15 μl of the coline assay reagent. (100 mM Tris-HCl buffer (pH7.5), 5 mM. MgCl2, 77 μg/ml coline oxidase, 10 μg/ml peroxydase, 25μM 10-acetyl-3,7-dihydroxyphenoxazine, and excess autotaxin inhibitor) was added and allowed to react at room temperature for 20 minutes. The fluorescent dye Resorufin, which was produced by the reaction, was detected. The fluorescence was detected using ViewLux
(PerkinElmer, Inc.) with a excitation wavelength of 531 nm and a fluorescence wavelength of 598 nm.
The percent inhibition of the test compound was calculated by assuming the sample with no test compound as 0% inhibition and the sample with no enzyme as 100% inhibition, and the percent inhibitions at different concentrations of the test compound were plotted to obtain a concentration-dependent curve.

## CCCCCn1c(-c2ccc(Cl)cc2)cc(=O)n(C)c1=N [Compound I-0001]
  IC50: ≥ 1000 nM

## CCCCCc1nc(-c2ccc(Cl)cc2)[nH]c(=O)c1Cc1ccc(C(=O)O)cc1 [Compound I-0002]
  IC50: 100 to 1000 nM

## CCCCCc1nc(-c2ccc(Cl)cc2)[nH]c(=O)c1Cc1cccc(C(=O)O)c1 [Compound I-0003]
  IC50: 100 to 1000 nM

## CCCCCNc1nc(-c2ccc(C(F)(F)F)cc2)cc(=O)n1Cc1ccccc1 [Compound I-0004]
  IC50: ≥ 1000 nM

## CCCCCc1nc(-c2ccc(Cl)cc2)cc(=O)n1C [Compound I-0005]
  IC50: ≥ 1000 nM

## CCCCCc1nc(-c2ccc(Cl)cc2)cc(=O)n1CC [Compound I-0006]
  IC50: ≥ 1000 nM

## CCCCCc1nc(-c2ccc(Cl)cc2)cc(=O)n1Cc1ccccc1 [Compound I-0007]
  IC50: ≥ 1000 nM

## CCCCCc1nc(-c2ccc(Cl)cc2)cc(=O)n1Cc1ccc(C(=O)O)cc1 [Compound I-0008]
  IC50: 100 to 1000 nM

## CCCCCc1nc(-c2ccc(Cl)cc2)cc(=O)n1Cc1cccc(C(=O)O)c1 [Compound I-0009]
  IC50: 10 to 100 nM

## CCCCCNc1nc(-c2ccc(C(F)(F)F)cc2)cc(=O)n1Cc1ccc(C(=O)O)cc1 [Compound I-0010]
  IC50: 100 to 1000 nM

## CCCCCNc1nc(-c2ccc(C(F)(F)F)cc2)cc(=O)n1Cc1cccc(C(=O)OC(C)(C)C)c1 [Compound I-0011]
  IC50: ≥ 1000 nM

## CCCCCNc1nc(-c2ccc(C(F)(F)F)cc2)cc(=O)n1Cc1cccc(C(=O)O)c1 [Compound I-0012]
  IC50: 10 to 100 nM

## CCCCCNc1nc(-c2ccc(C(F)(F)F)cc2)cc(=O)n1Cc1cccc(C(=O)NCC(N)=O)c1 [Compound I-0013]
  IC50: 100 to 1000 nM

## CCCCCNc1nc(-c2ccc(C(F)(F)F)cc2)cc(=O)n1Cc1cccc(C(=O)NC(Cc2ccccc2)C(=O)O)c1 (centres unmarked) [Compound I-0014]
  IC50: 100 to 1000 nM

## CCCCCNc1nc(-c2ccc(C(F)(F)F)cc2)cc(=O)n1Cc1cccc(C(=O)NCC(=O)O)c1 [Compound I-0015]
  IC50: 10 to 100 nM

## CCCCCNc1nc(-c2ccc(C(F)(F)F)cc2)cc(=O)n1Cc1cccc(C(=O)NCCC(=O)O)c1 [Compound I-0016]
  IC50: 100 to 1000 nM

## CCCCCNc1nc(-c2ccc(C(F)(F)F)cc2)cc(=O)n1Cc1ccc(C(=O)NC(Cc2ccccc2)C(=O)O)cc1 (centres unmarked) [Compound I-0017]
  IC50: 100 to 1000 nM

## CCCCCNc1nc(-c2ccc(C(F)(F)F)cc2)cc(=O)n1Cc1ccc(C(=O)NCC(=O)O)cc1 [Compound I-0018]
  IC50: 100 to 1000 nM

## CCCCCNc1nc(-c2ccc(C(F)(F)F)cc2)cc(=O)n1Cc1ccc(C(=O)NCC(N)=O)cc1 [Compound I-0019]
  IC50: ≥ 1000 nM

## CCCCCNc1nc(-c2ccc(C#N)cc2)cc(=O)n1Cc1cccc(C(=O)OC(C)(C)C)c1 [Compound I-0021]
  IC50: 100 to 1000 nM

## CCCCCNc1nc(-c2ccc(C#N)cc2)cc(=O)n1Cc1cccc(C(=O)O)c1 [Compound I-0022]
  IC50: 10 to 100 nM

## CCCCCc1nc(-c2ccc(Cl)cc2)cc(=O)n1CC(=O)OC [Compound I-0023]
  IC50: 10 to 100 nM

## CCCCCc1nc(-c2ccc(Cl)cc2)cc(=O)n1CC(=O)NC(Cc1ccccc1)C(=O)O (centres unmarked) [Compound I-0024]
  IC50: < 10 nM

## CCCCCc1nc(-c2ccc(Cl)cc2)cc(=O)n1CC(=O)NC(C)C [Compound I-0026]
  IC50: 10 to 100 nM

## CCCCCc1nc(-c2ccc(Cl)cc2)cc(=O)n1CC(=O)NCCO [Compound I-0027]
  IC50: 100 to 1000 nM

## CCCCCc1nc(-c2ccc(Cl)cc2)cc(=O)n1CC(=O)NC1COC1 [Compound I-0028]
  IC50: 10 to 100 nM

## CCCCCc1nc(-c2ccc(Cl)cc2)cc(=O)n1CC(=O)N(C)CCO [Compound I-0029]
  IC50: 100 to 1000 nM

## CCCCCc1nc(-c2ccc(Cl)cc2)cc(=O)n1CC(=O)NCCCO [Compound I-0030]
  IC50: 100 to 1000 nM

## CCCCCc1nc(-c2ccc(Cl)cc2)cc(=O)n1CC(=O)NCCC(N)=O [Compound I-0031]
  IC50: 100 to 1000 nM

## CCCCCc1nc(-c2ccc(Cl)cc2)cc(=O)n1CC(=O)NCCN(C)C [Compound I-0032]
  IC50: 100 to 1000 nM

## CCCCCc1nc(-c2ccc(Cl)cc2)cc(=O)n1CC(=O)NCC1(CO)CC1 [Compound I-0033]
  IC50: 10 to 100 nM

## CCCCCc1nc(-c2ccc(Cl)cc2)cc(=O)n1CC(=O)NCc1ccccc1 [Compound I-0034]
  IC50: 100 to 1000 nM

## CCCCCc1nc(-c2ccc(Cl)cc2)cc(=O)n1CC(=O)NCC1(CO)COC1 [Compound I-0035]
  IC50: 10 to 100 nM

## CCCCCc1nc(-c2ccc(Cl)cc2)cc(=O)n1CC(=O)N(C)Cc1ccccc1 [Compound I-0036]
  IC50: 100 to 1000 nM

## CCCCCc1nc(-c2ccc(Cl)cc2)cc(=O)n1CC(=O)NCC1CCC(=O)NC1 (centres unmarked) [Compound I-0037]
  IC50: 100 to 1000 nM

## CCCCCc1nc(-c2ccc(Cl)cc2)cc(=O)n1CC(=O)NCc1cccc(=O)n1C [Compound I-0038]
  IC50: 100 to 1000 nM

## CCCCCc1nc(-c2ccc(Cl)cc2)cc(=O)n1CC(=O)NC(C)C(=O)O (centres unmarked) [Compound I-0039]
  IC50: 10 to 100 nM

## CCCCCc1nc(-c2ccc(Cl)cc2)cc(=O)n1CC(=O)NCCC(=O)O [Compound I-0040]
  IC50: 10 to 100 nM

## CCCCCc1nc(-c2ccc(Cl)cc2)cc(=O)n1CC(=O)NCc1ccc(C(=O)O)cc1 [Compound I-0041]
  IC50: 10 to 100 nM

## CCCCCc1nc(-c2ccc(Cl)cc2)cc(=O)n1CC(=O)N1CCC(C(=O)O)CC1 [Compound I-0042]
  IC50: < 10 nM

## CCCCCc1nc(-c2ccc(Cl)cc2)cc(=O)n1CC(=O)NCCCCCC(=O)O [Compound I-0043]
  IC50: 10 to 100 nM

## CCCCCc1nc(-c2ccc(Cl)cc2)cc(=O)n1CC(=O)NCCCC(=O)O [Compound I-0044]
  IC50: < 10 nM

## CCCCCc1nc(-c2ccc(Cl)cc2)cc(=O)n1CC(=O)N1CCC(CC(=O)O)CC1 [Compound I-0045]
  IC50: < 10 nM

## CCCCCc1nc(-c2ccc(Cl)cc2)cc(=O)n1CC(=O)N1CCC(c2ccccc2C(=O)O)CC1 [Compound I-0046]
  IC50: 10 to 100 nM

## CCCCCc1nc(-c2ccc(Cl)cc2)cc(=O)n1CC(=O)N1CCCC(c2ccc(C(=O)O)cc2)C1 (centres unmarked) [Compound I-0047]
  IC50: 100 to 1000 nM

## CCCCCc1nc(-c2ccc(Cl)cc2)cc(=O)n1CC(=O)N1CCN(CC(=O)O)CC1 [Compound I-0048]
  IC50: < 10 nM

## CCCCCc1nc(-c2ccc(Cl)cc2)cc(=O)n1CC(=O)N1CCCCC1C(=O)O (centres unmarked) [Compound I-0049]
  IC50: 100 to 1000 nM

## CCCCCc1nc(-c2ccc(Cl)cc2)cc(=O)n1CC(=O)NC(C(=O)O)C(C)C (centres unmarked) [Compound I-0050]
  IC50: 100 to 1000 nM

## CCCCCc1nc(-c2ccc(Cl)cc2)cc(=O)n1CC(=O)NC(CC)C(=O)O (centres unmarked) [Compound I-0051]
  IC50: < 10 nM

## CCCCCc1nc(-c2ccc(Cl)cc2)cc(=O)n1CC(=O)NC(CO)C(=O)O (centres unmarked) [Compound I-0052]
  IC50: < 10 nM

## CCCCCc1nc(-c2ccc(Cl)cc2)cc(=O)n1CC(=O)N1CCC(c2cccc(C(=O)O)c2)CC1 [Compound I-0053]
  IC50: 10 to 100 nM

## CCCCCc1nc(-c2ccc(Cl)cc2)cc(=O)n1CC(=O)NCc1ccccc1C(=O)O [Compound I-0054]
  IC50: 100 to 1000 nM

## CCCCCc1nc(-c2ccc(Cl)cc2)cc(=O)n1CC(=O)NCC(=O)NCC(=O)O [Compound I-0055]
  IC50: < 10 nM

## CCCCCc1nc(-c2ccc(Cl)cc2)cc(=O)n1CC(=O)NC(C)(C)C(=O)O [Compound I-0056]
  IC50: < 10 nM

## CCCCCc1nc(-c2ccc(Cl)cc2)cc(=O)n1CC(=O)NC1(C(=O)O)CCCC1 [Compound I-0057]
  IC50: 10 to 100 nM

## CCCCCc1nc(-c2ccc(Cl)cc2)cc(=O)n1CC(=O)NC1(C(=O)O)CCOCC1 [Compound I-0058]
  IC50: ≥ 1000 nM

## CCCCCc1nc(-c2ccc(Cl)cc2)cc(=O)n1CC(=O)NCC(=O)N1CCC(C(=O)O)CC1 [Compound I-0059]
  IC50: 10 to 100 nM

## CCCCCc1nc(-c2ccc(Cl)cc2)cc(=O)n1CC(=O)NC(C(=O)O)c1ccc(O)cc1 (centres unmarked) [Compound I-0060]
  IC50: 10 to 100 nM

## CCCCCc1nc(-c2ccc(Cl)cc2)cc(=O)n1CC(=O)NC(CC(=O)O)c1ccccc1 (centres unmarked) [Compound I-0061]
  IC50: 10 to 100 nM

## CCCCCc1nc(-c2ccc(Cl)cc2)cc(=O)n1CC(=O)N(CCC(=O)O)C1CCCC1 [Compound I-0062]
  IC50: 10 to 100 nM

## CCCCCc1nc(-c2ccc(Cl)cc2)cc(=O)n1CC(=O)NC1CCC(C(=O)O)CC1 (centres unmarked) [Compound I-0063]
  IC50: < 10 nM

## CCCCCc1nc(-c2ccc(Cl)cc2)cc(=O)n1CC(=O)NCCCCC(=O)O [Compound I-0064]
  IC50: < 10 nM

## CCCCCc1nc(-c2ccc(Cl)cc2)cc(=O)n1CC(=O)NCC(=O)O [Compound I-0065]
  IC50: 10 to 100 nM

## CCCCCc1nc(-c2ccc(Cl)cc2)cc(=O)n1CC(=O)N1CCC(C(=O)O)C1 (centres unmarked) [Compound I-0066]
  IC50: ≥ 1000 nM

## CCCCCc1nc(-c2ccc(Cl)cc2)cc(=O)n1CC(=O)N1CCOC[C@H]1C(=O)O [Compound I-0067]
  IC50: 100 to 1000 nM

## CCCCCc1nc(-c2ccc(Cl)cc2)cc(=O)n1CC(=O)N1CCCC1C(=O)O (centres unmarked) [Compound I-0068]
  IC50: ≥ 1000 nM

## CCCCCc1nc(-c2ccc(Cl)cc2)cc(=O)n1CC(=O)NC1(C(=O)O)CC1 [Compound I-0069]
  IC50: 10 to 100 nM

## CCCCCc1nc(-c2ccc(Cl)cc2)cc(=O)n1CC(=O)NCC(C)(C)C(=O)O [Compound I-0070]
  IC50: < 10 nM

## CCCCCc1nc(-c2ccc(Cl)cc2)cc(=O)n1CC(=O)N[C@H]1C[C@H](C(=O)O)C1 [Compound I-0071]
  IC50: < 10 nM

## CCCCCc1nc(-c2ccc(Cl)cc2)cc(=O)n1CC(=O)NC12CCC(C(=O)O)(CC1)CC2 [Compound I-0072]
  IC50: < 10 nM

## CCCCCc1nc(-c2ccc(Cl)cc2)cc(=O)n1CC(=O)NC1(C(=O)O)CCC1 [Compound I-0073]
  IC50: < 10 nM
